Consider 9 compounds from patent US20240425523A1, “Compounds for the Degradation of EGFR Kinase” (Beigene Switzerland GMBH, priority 2023, published 2024).

What all share (assay type): cell-based
The target of assay [1] is T1, p-EGFR L858R (BaF3-L858R cells) (Homo sapiens, UniProt P00533, L858R).
T1 construct: host or cells: BaF3
In words: Cell p-EGFR inhibition assay, HTRF, BaF3-L858R cells. The settings on record: 16 h treatment; for Imax (%): maximum percentage of pEGFR inhibition; for IC50: pEGFR inhibition. The method, boiled down: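 BaF3-L858R cells treated 16 h at 37 °C, 5% CO2 with compound from 10 uM top, 5-fold dilutions, 8 doses, in 0.1% DMSO medium. Lysates read overnight by HTRF p-EGFR antibodies; IC50 fitted to four-parameter curve against DMSO high control.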
A general note: TR-FRET usually uses a lanthanide donor and a delayed reading to cut background.

Assay [2] deals with p-EGFR Del19/C797S (H1975-clone #23 cells) (Homo sapiens, UniProt P00533). Briefly: Cell p-EGFR inhibition assay, HTRF, H1975-clone#23 (DEL19/C797S) cells. The settings on record: 16 h treatment; for Imax (%): maximum percentage of pEGFR inhibition; for IC50: pEGFR inhibition. The procedure, abridged: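 Phospho-EGFR read by overnight HTRF on lysates, normalized to DMSO-treated high control; IC50, Hill slope and Imax fitted. Compounds were applied for 16 h (10 uM top, 5-fold steps, 8 doses) to an H1975 single clone carrying only exogenous Del19/C797S EGFR after sgRNA knockout of endogenous copies.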

The target of assay [3] is T2, EGFR-L858R/C797S (H1975-clone #8 cells) (Homo sapiens, UniProt P00533, C797S/L858R).
T2 construct: expressed in transfected cells; host or cells: H1975 (endogenous EGFR knocked out, clone #8)
Briefly: Cell degradation of EGFR, HTRF assay, H1975-clone#8 (L858R/C797S) cells. The settings on record: 16 h treatment; for DC50: EGFR degradation; for Dmax: maximum percentage of degradation.

In assay [4] the target is T3, EGFR L858R (BaF3-L858R cells) (Homo sapiens, UniProt P00533, L858R).
T3 construct: host or cells: BaF3
Briefly: Cell degradation of EGFR, HTRF assay, BaF3-L858R cells. The settings on record: 16 h treatment; for DC50: EGFR degradation; for Dmax: maximum percentage of degradation. The method, boiled down: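 EGFR L858R levels measured by HTRF antibody pair in lysed BaF3-L858R cells after 16 h compound exposure (8-point 5-fold series from 10 uM final, 37° C). Degradation is relative to DMSO-only cells; DC50 fitted with Hill equation, Dmax taken as the largest percent loss.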

By IC50 is commonly meant the concentration at which inhibition is half-maximal. A low value points to greater potency. The DC50 is the midpoint of the concentration-degradation curve. A high value points to degradation only at high concentration. As usually defined, the Dmax is the largest share of the target that was removed. Read a low Dmax as shallow degradation.

With `Cc1cc2cc(n1)-c1cnn(C)c1OC[C@H]1CCC(C1)CN1/C(=N/C2=O)Nc2cc(C)c(N3CCN([C@@H]4CCN(c5ccc(C6CCC(=O)NC6=O)nc5C)C[C@@H]4F)CC3)cc21` (stereo partly drawn) [Example 102, 3-(5-((3S,4R)-3-fluoro-4-(4-((7^1R,7^3S,E)-1^1,2^6,5^5-trimethyl-3-oxo-5^2,5^3-dihydro-1^1H,5^1H-9-oxa-4-aza-5(2,1)-benzo[d]imidazola-2(2,4)-pyridina-1(4,5)-pyrazola-7(1,3)-cyclopentanacyclononaphane-5^6-yl)piperazin-1-yl)piperidin-1-yl)-6-methylpyridin-2-yl)piperidine-2,6-dione], in assay [1], the “Imax (%)” value was determined as 95% and the IC50 came out at 1.5 nM. Also, in assay [2], the “Imax (%)” value is on record as 100.5% and the IC50 is 0.6 nM. In assay [3], this compound yielded a DC50 of 0.76 nM and a Dmax of 91.5%. In assay [4], this compound displayed a DC50 of 0.59 nM and a Dmax of 85.8%.
`Cc1cc2cc(n1)-c1c(C)nn(C)c1OC[C@H]1CC[C@H](C1)CN1/C(=N/C2=O)Nc2ccc(N3CCC(C)(CN(C)C4CCN(c5cc(F)c([C@H]6CCC(=O)NC6=O)c(F)c5)CC4)CC3)cc21` [Example 168, (R)-3-(2,6-difluoro-4-(4-(methyl((4-methyl-1-((7^1R,7^3S,E)-1^1,1^3′2^6-trimethyl-3-oxo-5^2′5^3-dihydro-1^1H,5^1H-9-oxa-4-aza-5(2,1)-benzo[d]imidazola-2(2,4)-pyridina-1(4,5)-pyrazola-7(1,3)-cyclopentanacyclononaphane-5^6-yl)piperidin-4-yl)methyl)amino)piperidin-1-yl)phenyl)piperidine-2,6-dione]: the “Imax (%)” value in assay [1] is given as 100.64%; in assay [2], 102.22%. Moreover, the IC50 in assay [1] stood at 8.76 nM; in assay [2], 2.56 nM. Also, the DC50 in assay [3] was 3.07 nM; in assay [4], 2.96 nM. In addition, the values for the Dmax in assay [3] and in assay [4] were 81.1% and 80.9%, respectively.
Regarding `COC[C@H]1CN(c2ccc3c(c2)N2C[C@@H]4CC[C@H](COc5c(cnn5C)-c5cc(cc(C)n5)C(=O)/N=C/2N3)C4)CCN1C1CN(C2CCN(c3cc(F)c([C@H]4CCC(=O)NC4=O)c(F)c3)CC2)C1` [Example 208, (R)-3-(4-(4-(3-((R)-4-((7^1R,7^3S,E)-1^1,2^6-dimethyl-3-oxo-5^2,5^3-dihydro-1^1H,5^1H-9-oxa-4-aza-5(2,1)-benzo[d]imidazola-2(2,4)-pyridina-1(4,5)-pyrazola-7(1,3)-cyclopentanacyclononaphane-5^6-yl)-2-(methoxymethyl)piperazin-1-yl)azetidin-1-yl)piperidin-1-yl)-2,6-difluorophenyl)piperidine-2,6-dione], in assay [1], the “Imax (%)” value was 91.5% and the IC50 was 1.21 nM. In addition, in assay [2], the “Imax (%)” value is listed as 99.76% and the midpoint of inhibition, the IC50, lay at 3.02 nM. In assay [3], this compound had a DC50 of 1.01 nM and a maximal degradation (Dmax) of 70.7%. For the same compound, in assay [4], the DC50 amounted to 0.67 nM and the Dmax was found to be 91.6%.
Turning to `COC[C@@H]1CN(c2ccc3c(c2)N2C[C@@H]4CC[C@H](COc5c(cnn5C)-c5cc(cc(C)n5)C(=O)/N=C/2N3)C4)CCN1CC1CN(c2ccc3c(c2)CN(C2CCC(=O)NC2=O)C3=O)C1` (stereo partly drawn) [Example 63, 3-(5-(3-(((S)-4-((7^1R,7^3S,E)-1^1,2^6-dimethyl-3-oxo-5^2,5^3-dihydro-1^1H,5^1H-9-oxa-4-aza-5(2,1)-benzo[d]imidazola-2(2,4)-pyridina-1(4,5)-pyrazola-7(1,3)-cyclopentanacyclononaphane-5^6-yl)-2-(methoxymethyl)piperazin-1-yl)methyl)azetidin-1-yl)-1-oxoisoindolin-2-yl)piperidine-2,6-dione], in assay [1], the “Imax (%)” value is 103% and the midpoint of inhibition, the IC50, lay at 0.2 nM. In addition, in assay [2], the “Imax (%)” value is on record as 100.6% and the IC50 worked out at 0.2 nM. In assay [3], this compound gave a DC50 of 0.61 nM and a Dmax of 60.9%. Further, in assay [4], the DC50 is 0.55 nM and the Dmax came to 90%.
For the compound `Cc1cc2cc(n1)-c1c(C)nn(C)c1OC[C@H]1CC[C@H](C1)CN1/C(=N/C2=O)Nc2ccc(N3C[C@H](C)N(C4CCN(c5cc(F)c([C@H]6CCC(=O)NC6=O)c(F)c5)CC4)C[C@H]3C)cc21` [Example 191, (R)-3-(4-(4-((2S,5R)-2,5-dimethyl-4-((7^1R,7^3S,E)-1^1,1^3,2^6-trimethyl-3-oxo-5^2,5^3-dihydro-1^1H,5^1H-9-oxa-4-aza-5(2,1)-benzo[d]imidazola-2(2,4)-pyridina-1(4,5)-pyrazola-7(1,3)-cyclopentanacyclononaphane-5^6-yl)piperazin-1-yl)piperidin-1-yl)-2,6-difluorophenyl)piperidine-2,6-dione], in assay [1], the “Imax (%)” value was determined as 90.84% and it took 0.528 nM to reach half-maximal inhibition (IC50). Also, in assay [2], the “Imax (%)” value amounted to 99.88% and the 50% inhibitory concentration (IC50) came to 0.769 nM. In assay [3], this compound showed a DC50 of 0.73 nM and a Dmax of 88.7%. In assay [4], this compound had a DC50 of 2.94 nM and a Dmax of 89.3%.
`COC[C@@H]1CN(c2ccc3c(c2)N2CC4CC[C@H](COc5c(cnn5C)-c5cc(cc(C)n5)C(=O)/N=C/2N3)C4)CCN1CC1CN(c2cc(F)c([C@H]3CCC(=O)NC3=O)c(F)c2)C1` [Example 86, (R)-3-(4-(3-(((S)-4-((7^1R,7^3S,E)-1^1,2^6-dimethyl-3-oxo-5^2,5^3-dihydro-1^1H,5^1H-9-oxa-4-aza-5(2,1)-benzo[d]imidazola-2(2,4)-pyridina-1(4,5)-pyrazola-7(1,3)-cyclopentanacyclononaphane-5^6-yl)-2-(methoxymethyl)piperazin-1-yl)methyl)azetidin-1-yl)-2,6-difluorophenyl)piperidine-2,6-dione]: in assay [1], the “Imax (%)” value was determined as 97.1% and the IC50 worked out at 17.2 nM. Moreover, in assay [2], the “Imax (%)” value came to 100.2% and the IC50 was 3 nM. In addition, in assay [3], the DC50 turned out to be 3.22 nM and the Dmax is 66%. In assay [4], this compound displayed a DC50 of 2.74 nM and a Dmax of 70.3%.
Regarding `Cc1nn(C)c2c1-c1cc(cc(Cl)n1)C(=O)/N=C1\Nc3ccc(N4CCN(C5CCN(c6cc(F)c([C@H]7CCC(=O)NC7=O)c(F)c6)CC5)CC4)cc3N1C[C@@H]1CC[C@H](CO2)C1` [Example 179, (R)-3-(4-(4-(4-((7^1R,7^3S,E)-2^6-chloro-1^1,1^3-dimethyl-3-oxo-5^2,5^3-dihydro-1^1H,5^1H-9-oxa-4-aza-5(2,1)-benzo[d]imidazola-2(2,4)-pyridina-1(4,5)-pyrazola-7(1,3)-cyclopentanacyclononaphane-5^6-yl)piperazin-1-yl)piperidin-1-yl)-2,6-difluorophenyl)piperidine-2,6-dione], in assay [1], the “Imax (%)” value was determined as 99.14% and the half-inhibitory concentration (IC50) is 14.4 nM. In assay [2], the “Imax (%)” value is 100.7% and the IC50 worked out at 2.85 nM. Besides, in assay [3], it took 10.6 nM to reach half-maximal degradation (DC50) and the greatest degradation seen (Dmax) is 89.6%. In assay [4], this compound gave a DC50 of 5.38 nM and a maximal degradation (Dmax) of 90.8%.
On to `Cc1cc2cc(n1)-c1c(C)nn(C)c1OC[C@H]1CCC(C1)CN1/C(=N/C2=O)Nc2ccc(N3CCN([C@@H]4CCN(c5cc(F)c(C6CCC(=O)NC6=O)nc5C)C[C@@H]4F)CC3)cc21` (stereo partly drawn) [Example 82, 3-(3-fluoro-5-((3S,4R)-3-fluoro-4-(4-((7^1R,7^3S,E)-1^1,1^3,2^6-trimethyl-3-oxo-5^2,5^3-dihydro-1^1H,5^1H-9-oxa-4-aza-5(2,1)-benzo[d]imidazola-2(2,4)-pyridina-1(4,5)-pyrazola-7(1,3)-cyclopentanacyclononaphane-5^6-yl)piperazin-1-yl)piperidin-1-yl)-6-methylpyridin-2-yl)piperidine-2,6-dione], for which, in assay [1], the “Imax (%)” value is recorded as 91.9% and the half-inhibitory concentration (IC50) stood at 3.1 nM. Moreover, in assay [2], the “Imax (%)” value is given as 101.1% and the midpoint of inhibition, the IC50, lay at 1.1 nM. Besides, in assay [3], half-maximal degradation (DC50) was put at 0.8 nM and the Dmax came to 89.2%. Further, in assay [4], the DC50 was determined as 0.31 nM and the Dmax stood at 74.1%.
In the case of `Cc1cc2cc(n1)-c1cnn(C)c1OC[C@H]1CC[C@H](C1)CN1/C(=N/C2=O)Nc2ccc(N3CCN(C4CCN(c5ccc(NC6CCC(=O)NC6=O)cc5F)CC4)CC3)cc21` (stereo partly drawn) [Example 59, 3-((4-(4-(4-((7^1R,7^3S,E)-1^1,2^6-dimethyl-3-oxo-5^2,5^3-dihydro-1^1H,5^1H-9-oxa-4-aza-5(2,1)-benzo[d]imidazola-2(2,4)-pyridina-1(4,5)-pyrazola-7(1,3)-cyclopentanacyclononaphane-5^6-yl)piperazin-1-yl)piperidin-1-yl)-3-fluorophenyl)amino)piperidine-2,6-dione], in assay [1], the “Imax (%)” value was 102.5% and the 50% inhibitory concentration (IC50) was determined as 7 nM. In addition, in assay [2], the “Imax (%)” value is reported as 99.6% and the concentration for half-maximal inhibition (IC50) was determined as 0.7 nM. In assay [3], it took 2.87 nM to reach half-maximal degradation (DC50) and the maximal degradation (Dmax) amounted to 69%. Further, in assay [4], the DC50 is 3.18 nM and the Dmax worked out at 85.1%.
